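Compound exposure: 48 hours, 5 concentrations, 96-well plates. TGI denotes the concentration required for complete inhibition of growth.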
Tests used:
Test in all cases: DTP human tumour cell line panel, 48 h
[1] = system: HL-60(TB) leukemia
[2] = system: MALME-3M melanoma
[3] = system: LOX IMVI melanoma
[4] = system: OVCAR-3 ovarian
[5] = system: RPMI-8226 leukemia
[6] = system: SF-268 CNS
[7] = system: MDA-MB-435
[8] = system: MDA-N
[9] = system: K-562 leukemia
[10] = system: ACHN renal
[11] = system: IGROV1 ovarian
[12] = system: OVCAR-8 ovarian
[13] = system: U251 CNS
[14] = system: SR leukemia
[15] = system: COLO 205 colon
[16] = system: A549 NSCLC
[17] = system: SK-MEL-5 melanoma
[18] = system: SNB-75 CNS
[19] = system: SK-MEL-2 melanoma

Compound | TGI [1] [µM] | TGI [2] [µM] | TGI [3] [µM] | TGI [4] [µM] | TGI [5] [µM] | TGI [6] [µM] | TGI [7] [µM] | TGI [8] [µM] | TGI [9] [µM] | TGI [10] [µM] | TGI [11] [µM] | TGI [12] [µM] | TGI [13] [µM] | TGI [14] [µM] | TGI [15] [µM] | TGI [16] [µM] | TGI [17] [µM] | TGI [18] [µM] | TGI [19] [µM]
CCCCc1ccc(Nc2nc(Cl)c3c(ncn3COCCOC(C)=O)n2)cc1 | 49.9 | 36.9 | 34 | 43.8 | > 100 | 38.5 | 32.9 | 34.4 | 51.8 | 35.8 | 40.2 | 33.6 | 43.1 | 47.3 | 45.5 | 41 | 36.2 | 16.5 | 39.2
CC1=NC(=O)C(C)(c2ccccc2)N1CCc1ccccc1 (stereo not drawn) | > 100 | > 100 | > 100 | > 100 | > 100 | > 100 | > 100 | > 100 | > 100 | > 100 | > 100 | > 100 | > 100 | > 100 | > 100 | > 100 | > 100 | > 100 | > 100
CC1=C(C(=O)Nc2cccc3c2C(=O)NC3=O)CC(C(=O)Nc2cccc3c2C(=O)NC3=O)=C(C)N1 | > 100 | > 100 | > 100 | > 100 | > 100 | > 100 | > 100 | > 100 | > 100 | > 100 | > 100 |  | > 100 | > 100 | > 100 | > 100 | > 100 | > 100 | > 100
Cc1ccc(NCC2CC/C(=C\c3ccc(Cl)cc3)C2=O)cc1 (stereo not drawn) | 13.7 | 38 | 19 | 29.1 | 6.96 | 56.4 | 35.9 | 26.4 | > 19.8 | > 71.5 | 38 | 36.1 | 34 | > 24 | 34.2 | > 100 | 20.4 | > 100 | 
CC(C)OP(=O)(OC(C)C)C(C(C)C)N(C)/C(N)=N\C1=NC(C(F)(F)F)(C(F)(F)F)N=C(C(C(F)(F)F)C(F)(F)F)O1 (stereo not drawn) | 4.16 | 22.7 | 3.77 | 31.6 | 7.45 | 12 | 3.78 | 4.91 | 5.11 | 8.67 | 5.77 | 5.28 | 11.2 | 14.2 | 3.64 | 14.6 |  | 11.9 | > 100
CCOC(=O)/C(O)=C(/C=N\C(=S)Nc1ccccc1Cl)C(=O)OCC | > 100 | > 100 | > 100 | > 100 | > 100 | > 100 | > 100 | > 100 | > 100 | > 100 | > 100 | > 100 | > 100 | > 100 | > 100 | > 100 | > 100 | > 100 | > 100
Fc1c(F)c(C(F)(F)F)c(F)c(F)c1N/N=C\c1c[nH]c2ccccc12 | 9.25 | 16.1 | 12.1 | 4.7 | 10.2 | 19.4 | 3.14 | 3.61 | 10.5 | 19.5 | 10.4 | 21.8 | 12.8 | 9.19 | 2.71 | 12 | 4.04 | 6.23 | 8.81
CCOC(=O)NC(C(F)(F)F)(C(F)(F)F)P(=O)(OC(C)C)OC(C)C | > 100 | > 100 | > 100 | > 100 | > 100 | > 100 | > 100 | > 100 | > 100 | > 100 | > 100 | > 100 | > 100 | > 100 | > 100 | > 100 | > 100 | > 100 | > 100
Oc1ccccc1/C=N/Nc1nnc2c3ccccc3c3ccccc3c2n1 | > 100 | > 100 | > 100 | 44.2 | > 100 | > 100 | > 100 | > 100 | > 100 | > 100 | > 100 | > 100 | > 100 | > 100 | > 100 | > 100 | > 100 | 84.4 | > 100
C=C(c1ccccc1)C1ON(C)CCc2cc(OC)c(OC)cc21 (stereo not drawn) | > 100 | > 100 | > 100 | > 100 | > 100 | > 100 | > 100 | > 100 | > 100 | > 100 | > 100 | > 100 | > 100 | > 100 | > 100 | > 100 | 66 | > 100 | 
O=c1c2cc(S(=O)(=O)Nc3ccccc3Cl)ccc2ncn1NS(=O)(=O)c1ccc(Br)cc1 | > 37.5 | > 37.5 | > 37.5 | > 37.5 | > 37.5 | > 37.5 | > 37.5 | > 37.5 | > 37.5 | > 37.5 | > 37.5 | > 37.5 | > 37.5 | > 37.5 | > 37.5 | > 37.5 |  | > 37.5 | > 37.5
CCOC(=O)c1ccc(C(=O)OCC)n1-c1cc2cc(c1)CSCc1cc(cc(-n3c(C(=O)OCC)ccc3C(=O)OCC)c1)CSC2 | > 10 | > 10 | > 10 | > 10 | > 10 | > 10 | > 10 | > 10 | > 10 | > 10 | > 10 | > 10 | > 10 | > 10 | > 10 | > 10 | > 10 | > 10 | > 10

From PubChem BioAssay (NCI)
